{"source": "patent US20260285850A1", "about": "“SUBSTITUTED OXAZOLIDINONES AND IMIDAZOLINONES AS HERBICIDES” (FMC CORPORATION, priority 2023, published 2026)", "assay_type_in_all_cases": "in vivo", "key": {"[1]": {"tested_on": "barnyardgrass (Echinochloa crus-galli)", "assay": "Test A preemergence soil spray, visual injury rating 0-100", "settings": "10 days", "summary_of_the_method": "(§1)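 Grow plants in loam soil blended with sand. Apply formulated compound (non-phytotoxic solvent, surfactant) as a directed soil spray before emergence, or to plants at the one- to two-leaf stage after emergence. Hold in greenhouse 10 days, then rate injury visually versus untreated controls on a 0-100 scale.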"}, "[2]": {"tested_on": "blackgrass (Alopecurus myosuroides)", "assay": "Test A preemergence soil spray, visual injury rating 0-100", "settings": "10 days", "summary_of_the_method": "as §1"}, "corn (Zea mays) [3]": {"tested_on": "corn (Zea mays)", "assay": "Test A preemergence soil spray, visual injury rating 0-100", "settings": "10 days", "summary_of_the_method": "as §1"}, "[4]": {"tested_on": "green foxtail (Setaria viridis)", "assay": "Test A preemergence soil spray, visual injury rating 0-100", "settings": "10 days", "summary_of_the_method": "as §1"}, "kochia (Bassia scoparia) [5]": {"tested_on": "kochia (Bassia scoparia)", "assay": "Test A preemergence soil spray, visual injury rating 0-100", "settings": "10 days", "summary_of_the_method": "as §1"}, "[6]": {"tested_on": "oat, wild (wild oat, Avena fatua)", "assay": "Test A preemergence soil spray, visual injury rating 0-100", "settings": "10 days", "summary_of_the_method": "as §1"}, "[7]": {"tested_on": "palmer (palmer amaranth, palmer pigweed, Amaranthus palmeri)", "assay": "Test A preemergence soil spray, visual injury rating 0-100", "settings": "10 days", "summary_of_the_method": "as §1"}, "[8]": {"tested_on": "ragweed (common ragweed, Ambrosia artemisiifolia)", "assay": "Test A preemergence soil spray, visual injury rating 0-100", "settings": "10 days", "summary_of_the_method": "as §1"}, "[9]": {"tested_on": "ryegrass, Italian (italian ryegrass, Lolium multiflorum)", "assay": "Test A preemergence soil spray, visual injury rating 0-100", "settings": "10 days", "summary_of_the_method": "as §1"}, "soybean (Glycine max) [10]": {"tested_on": "soybean (Glycine max)", "assay": "Test A preemergence soil spray, visual injury rating 0-100", "settings": "10 days", "summary_of_the_method": "as §1"}, "[11]": {"tested_on": "wheat (Triticum aestivum)", "assay": "Test A preemergence soil spray, visual injury rating 0-100", "settings": "10 days", "summary_of_the_method": "as §1"}, "[12]": {"tested_on": "barnyardgrass (Echinochloa crus-galli)", "assay": "Test A postemergence application, visual injury rating 0-100", "summary_of_the_method": "as §1"}, "[13]": {"tested_on": "blackgrass (Alopecurus myosuroides)", "assay": "Test A postemergence application, visual injury rating 0-100", "summary_of_the_method": "as §1"}, "corn (Zea mays) [14]": {"tested_on": "corn (Zea mays)", "assay": "Test A postemergence application, visual injury rating 0-100", "summary_of_the_method": "as §1"}, "[15]": {"tested_on": "galium (catchweed bedstraw, Galium aparine)", "assay": "Test A postemergence application, visual injury rating 0-100", "summary_of_the_method": "as §1"}, "[16]": {"tested_on": "green foxtail (Setaria viridis)", "assay": "Test A postemergence application, visual injury rating 0-100", "summary_of_the_method": "as §1"}, "[17]": {"tested_on": "horseweed (Erigeron canadensis)", "assay": "Test A postemergence application, visual injury rating 0-100", "summary_of_the_method": "as §1"}, "kochia (Bassia scoparia) [18]": {"tested_on": "kochia (Bassia scoparia)", "assay": "Test A postemergence application, visual injury rating 0-100", "summary_of_the_method": "as §1"}, "[19]": {"tested_on": "oat, wild (wild oat, Avena fatua)", "assay": "Test A postemergence application, visual injury rating 0-100", "summary_of_the_method": "as §1"}, "[20]": {"tested_on": "ragweed (common ragweed, Ambrosia artemisiifolia)", "assay": "Test A postemergence application, visual injury rating 0-100", "summary_of_the_method": "as §1"}, "[21]": {"tested_on": "ryegrass, Italian (italian ryegrass, Lolium multiflorum)", "assay": "Test A postemergence application, visual injury rating 0-100", "summary_of_the_method": "as §1"}, "soybean (Glycine max) [22]": {"tested_on": "soybean (Glycine max)", "assay": "Test A postemergence application, visual injury rating 0-100", "summary_of_the_method": "as §1"}, "[23]": {"tested_on": "wheat (Triticum aestivum)", "assay": "Test A postemergence application, visual injury rating 0-100", "summary_of_the_method": "as §1"}, "[24]": {"tested_on": "barnyardgrass (Echinochloa crusgalli)", "assay": "Test B flooded paddy test, visual plant response rating 0-100", "settings": "250 g ai/ha, Flood, applied to paddy water, evaluated after 13 days", "summary_of_the_method": "(§2)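 Visual scores versus untreated controls were recorded 13 days after treatment of greenhouse-held plants. At the 2-leaf stage, pots were flooded 3 cm above the soil surface and compounds added straight to the water.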"}, "[25]": {"tested_on": "ducksalad (Heteranthera limosa)", "assay": "Test B flooded paddy test, visual plant response rating 0-100", "settings": "250 g ai/ha, Flood, applied to paddy water, evaluated after 13 days", "summary_of_the_method": "as §2"}, "rice (Oryza sativa)": {"tested_on": "rice (Oryza sativa)", "assay": "Test B flooded paddy test, visual plant response rating 0-100", "settings": "250 g ai/ha, Flood, applied to paddy water, evaluated after 13 days", "summary_of_the_method": "as §2"}, "[26]": {"tested_on": "sedge, umbrella (small-flower umbrella sedge, Cyperus difformis)", "assay": "Test B flooded paddy test, visual plant response rating 0-100", "settings": "250 g ai/ha, Flood, applied to paddy water, evaluated after 13 days", "summary_of_the_method": "as §2"}, "[27]": {"settings": "62 g ai/ha, 0 = no effect, 100 = complete control"}, "[28]": {"settings": "62 g ai/ha, postemergence, 10 days, 0 = no effect, 100 = complete control"}, "[29]": {"settings": "Postemergence, 16 g ai/ha, greenhouse 10 days, 0 no effect, 100 complete control"}}, "data": [{"smiles": "COC(=O)C1CC(NC(=O)C2(C(F)(F)F)CN(c3cc(F)cc(F)c3)C(=O)O2)C2CC12", "note": "(centres unmarked) [Compound 177]", "values": [{"measurement": "Barnyardgrass plant response rating", "setting": "[1]; 16 g ai/ha, 0 to 100 scale", "value": 60}, {"measurement": "Barnyardgrass plant response rating (0-100)", "setting": "[1]; [27]", "value": 90}, {"measurement": "Blackgrass plant response rating", "setting": "[2]; 16 g ai/ha, 0 to 100 scale", "value": 60}, {"measurement": "Blackgrass plant response rating (0-100)", "setting": "[2]; [27]", "value": 90}, {"measurement": "Corn plant response rating", "setting": "corn (Zea mays) [3]; 16 g ai/ha, 0 to 100 scale", "value": 10}, {"measurement": "Corn plant response rating (0-100)", "setting": "corn (Zea mays) [3]; [27]", "value": 10}, {"measurement": "Foxtail, Green plant response rating", "setting": "[4]; 16 g ai/ha, 0 to 100 scale", "value": 90}, {"measurement": "Foxtail, Green plant response rating (0-100)", "setting": "[4]; [27]", "value": 100}, {"measurement": "Kochia plant response rating", "setting": "kochia (Bassia scoparia) [5]; 16 g ai/ha, 0 to 100 scale", "value": 0}, {"measurement": "Kochia plant response rating (0-100)", "setting": "kochia (Bassia scoparia) [5]; [27]", "value": 80}, {"measurement": "Oat, Wild plant response rating", "setting": "[6]; 16 g ai/ha, 0 to 100 scale", "value": 0}, {"measurement": "Oat, Wild plant response rating (0-100)", "setting": "[6]; [27]", "value": 90}, {"measurement": "Pigweed, Palmer plant response rating", "setting": "[7]; 16 g ai/ha, 0 to 100 scale", "value": 90}, {"measurement": "Pigweed, Palmer plant response rating (0-100)", "setting": "[7]; [27]", "value": 100}, {"measurement": "Ragweed plant response rating", "setting": "[8]; 16 g ai/ha, 0 to 100 scale", "value": 0}, {"measurement": "Ragweed plant response rating (0-100)", "setting": "[8]; [27]", "value": 20}, {"measurement": "Ryegrass, Italian plant response rating", "setting": "[9]; 16 g ai/ha, 0 to 100 scale", "value": 80}, {"measurement": "Ryegrass, Italian plant response rating (0-100)", "setting": "[9]; [27]", "value": 90}, {"measurement": "Soybean plant response rating", "setting": "soybean (Glycine max) [10]; 16 g ai/ha, 0 to 100 scale", "value": 0}, {"measurement": "Soybean plant response rating (0-100)", "setting": "soybean (Glycine max) [10]; [27]", "value": 0}, {"measurement": "Wheat plant response rating", "setting": "[11]; 16 g ai/ha, 0 to 100 scale", "value": 40}, {"measurement": "Wheat plant response rating (0-100)", "setting": "[11]; [27]", "value": 100}, {"measurement": "Barnyardgrass plant response rating (0-100)", "setting": "[12]; [28]", "value": 80}, {"measurement": "Barnyardgrass plant response rating (0 to 100 scale)", "setting": "[12]; [29]", "value": 70}, {"measurement": "Blackgrass plant response rating (0-100)", "setting": "[13]; [28]", "value": 90}, {"measurement": "Blackgrass plant response rating (0 to 100 scale)", "setting": "[13]; [29]", "value": 80}, {"measurement": "Corn plant response rating (0-100)", "setting": "corn (Zea mays) [14]; [28]", "value": 90}, {"measurement": "Corn plant response rating (0 to 100 scale)", "setting": "corn (Zea mays) [14]; [29]", "value": 30}, {"measurement": "Galium plant response rating (0-100)", "setting": "[15]; [28]", "value": 80}, {"measurement": "Galium plant response rating (0 to 100 scale)", "setting": "[15]; [29]", "value": 90}, {"measurement": "Foxtail, Green plant response rating (0-100)", "setting": "[16]; [28]", "value": 90}, {"measurement": "Foxtail, Green plant response rating (0 to 100 scale)", "setting": "[16]; [29]", "value": 30}, {"measurement": "Horseweed plant response rating (0-100)", "setting": "[17]; [28]", "value": 10}, {"measurement": "Horseweed plant response rating (0 to 100 scale)", "setting": "[17]; [29]", "value": 0}, {"measurement": "Kochia plant response rating (0-100)", "setting": "kochia (Bassia scoparia) [18]; [28]", "value": 70}, {"measurement": "Kochia plant response rating (0 to 100 scale)", "setting": "kochia (Bassia scoparia) [18]; [29]", "value": 30}, {"measurement": "Oat, Wild plant response rating (0-100)", "setting": "[19]; [28]", "value": 90}, {"measurement": "Oat, Wild plant response rating (0 to 100 scale)", "setting": "[19]; [29]", "value": 70}, {"measurement": "Ragweed plant response rating (0-100)", "setting": "[20]; [28]", "value": 20}, {"measurement": "Ragweed plant response rating (0 to 100 scale)", "setting": "[20]; [29]", "value": 0}, {"measurement": "Ryegrass, Italian plant response rating (0-100)", "setting": "[21]; [28]", "value": 80}, {"measurement": "Ryegrass, Italian plant response rating (0 to 100 scale)", "setting": "[21]; [29]", "value": 70}, {"measurement": "Soybean plant response rating (0-100)", "setting": "soybean (Glycine max) [22]; [28]", "value": 50}, {"measurement": "Soybean plant response rating (0 to 100 scale)", "setting": "soybean (Glycine max) [22]; [29]", "value": 20}, {"measurement": "Wheat plant response rating (0-100)", "setting": "[23]; [28]", "value": 90}, {"measurement": "Wheat plant response rating (0 to 100 scale)", "setting": "[23]; [29]", "value": 80}, {"measurement": "Plant response rating, Barnyardgrass (0 to 100 scale, 0 is no effect and 100 is complete control)", "setting": "[24]", "value": 90}, {"measurement": "Plant response rating, Ducksalad (0 to 100 scale, 0 is no effect and 100 is complete control)", "setting": "[25]", "value": 75}, {"measurement": "Plant response rating, Rice (0 to 100 scale, 0 is no effect and 100 is complete control)", "setting": "rice (Oryza sativa)", "value": 90}, {"measurement": "Plant response rating, Sedge, Umbrella (0 to 100 scale, 0 is no effect and 100 is complete control)", "setting": "[26]", "value": 80}]}]}
